Data: patent US11161907B2, “Car-expressing cells against multiple tumor antigens and uses thereof” (Novartis AG, priority 2015, dated 2021)
“Also recorded” adds a separate entry of the source. Like-named read-outs stand apart in the source and are kept apart here.

How the values were obtained:
[1] = test system: humanized CD19 CAR T cells; experiment: In vivo proliferation of huCAR19 CAR T cells with and without RAD001 (FACS); parameters: species or system NSG mice
Description: Mice were administered 5×10^6 CAR T cells 7 days after tumor implantation. Cells were partially thawed in a 37 degree Celsius water bath and then completely thawed by the addition of 1 ml of cold sterile PBS to the tube containing the cells. The thawed cells were transferred to a 15 ml falcon tube and adjusted to a final volume of 10 mls with PBS. The cells were washed twice at 1000 rpm for 10 minutes each time and then counted on a hemocytometer. T cells were then resuspended at a concentration of 50×10^6 CAR T cells per ml of cold PBS and kept on ice until the mice were dosed. The mice were injected intravenously via the tail vein with 100 μl of the CAR T cells for a dose of 5×10^6 CAR T cells per mouse. Eight mice per group were treated either with 100 μl of PBS alone (PBS), or humanized CD19 CAR T cells.
A concentrated micro-emulsion of 50 mg equal to 1 mg RAD001 was formulated and then resuspended in D5W (dextrose 5% in water) at the time of dosing. Mice were orally dosed daily (via oral gavage) with 200 μl of the desired doses of RAD001. PK analysis: Mice were dosed daily with RAD001 starting 7 days post tumor implantation. Dosing groups were as follows: 0.3 mg/kg, 1 mg/kg, 3 mg/kg, and 10 mg/kg. […]
Based on these doses, huCAR19 CAR T cells were dosed with and without RAD001 to determine the proliferative ability of these cells. […] Mice were monitored via FACS for T cell expansion.

NALM6-luc tumors = experiment: NALM6-luc tumor growth with daily oral RAD001; assay type: in vivo, NSG mice; conditions: daily oral dosing of RAD001 alone, 0.3-10 mg/kg
Description: NALM6-luc cells were grown and expanded in vitro in RPMI supplemented with 10% heat inactivated fetal bovine serum. The cells were then transferred to a 15 ml conical tube and washed twice with cold sterile PBS. NALM6-luc cells were then counted and resuspended at a concentration of 10×10^6 cells per milliliter of PBS. The cells were placed on ice and immediately (within one hour) implanted in the mice. NALM6-luc cells were injected intravenously via the tail vein in a 100 μl volume, for a total of 1×10^6 cells per mouse.
(§1) A concentrated micro-emulsion of 50 mg equal to 1 mg RAD001 was formulated and then resuspended in D5W (dextrose 5% in water) at the time of dosing. Mice were orally dosed daily (via oral gavage) with 200 μl of the desired doses of RAD001. PK analysis: Mice were dosed daily with RAD001 starting 7 days post tumor implantation. Dosing groups were as follows: 0.3 mg/kg, 1 mg/kg, 3 mg/kg, and 10 mg/kg. Mice were bled on days 0 and 14 following the first and last dose of RAD001, at the following time points for PK analysis: 15 minutes, 30 minutes, 1 hour, 2 hours, 4 hours, 8 hours, 12 hours, and 24 hours.

[2] = RAD001 pharmacokinetic analysis in blood of tumor bearing mice; assay type: in vivo, NSG mice; conditions: for concentration at 24 h: NSG, mouse, whole blood
Description: as §1

[3] = test system: huCART19 cells co-cultured with Nalm-6; experiment: 4 day co-culture proliferation assay of CARTs with RAD001; assay type: cell-based, human
Description: To evaluate the functionality of CARTs, the T cells are thawed and counted, and viability is assessed by Cellometer. The number of CAR-positive cells in each culture is normalized using non-transduced T cells (UTD). The impact of RAD001 on CARTs was tested in titrations with RAD001, starting at 50 nM. The target cell line used in all co-culture experiments is Nalm-6, a human pre-B cell acute lymphoblastic leukemia (ALL) cell line expressing CD19 and transduced to express luciferase.
For measuring the proliferation of CARTs, T cells are cultured with target cells at a ratio of 1:1. The assay is run for 4 days, when cells are stained for CD3, CD4, CD8 and CAR expression. The number of T cells is assessed by flow cytometry using counting beads as reference.

[4] = test system: subcutaneous SKOV3 tumors; experiment: Established subcutaneous SKOV3 xenograft model of ovarian cancer; assay type: in vivo, NSG mice; conditions: 3 weeks following adoptive transfer, versus UNT and CD19-27z groups
Excerpt: All animals were obtained from the Stem Cell and Xenograft Core of the Abramson Cancer Center, University of Pennsylvania. Six to 12-week-old NOD/SCID/γ-chain−/− (NSG) mice were bred, treated and maintained under pathogen-free conditions in-house under University of Pennsylvania IACUC approved protocols. For an established ovarian cancer model, 6 to 12-week-old female NSG mice were inoculated s.c. with 3×10^6 SKOV3 fLuc+ cells on the flank on day 0. After tumors become palpable at about 1 month, human primary T cell (CD4+ and CD8+ T cells used were mixed at 1:1 ratio) were activated, and transduced as described above. After 2 weeks T cell expansion, when the tumor burden was ˜200-300 mm^3, mice were treated with T cells. The route, dose, and timing of T-cell injections is indicated in the individual figure legends. Tumor dimensions were measured with calipers, and tumor volumes calculated using the formula V=½(length×width^2), where length is greatest longitudinal diameter and width is greatest transverse diameter. […] Photon emission from fLuc+ cells was quantified using the “Living Image” software (Xenogen) for all in vivo experiments. […]
Tumor growth was also monitored by Bioluminescent imaging (BLI). BLI was done using Xenogen IVIS imaging system and the photons emitted from fLuc-expressing cells within the animal body were quantified using Living Image software (Xenogen). […]

FRA = FRA (Homo sapiens, UniProt P15328); conditions: cited from earlier work
Chain of FRA (P15328 25-234): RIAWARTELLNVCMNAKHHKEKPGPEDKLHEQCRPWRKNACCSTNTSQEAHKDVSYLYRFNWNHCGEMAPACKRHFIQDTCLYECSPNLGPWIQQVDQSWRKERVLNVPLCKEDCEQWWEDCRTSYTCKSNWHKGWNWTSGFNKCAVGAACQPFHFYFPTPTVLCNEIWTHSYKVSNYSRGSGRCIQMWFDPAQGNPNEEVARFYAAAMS

| concentration at 24 h ([2]; oral, 0.3 mg/kg, 24 hours after the final dose, read-out: concentration of RAD001) [nM] | concentration at 24 h ([2]; day 0 PK, 24 hours after dosing, 0.3 mg/kg oral, read-out: RAD001 concentration in the blood) [nM] | RAD001 concentration in the blood ([2]; day 14 PK, 24 hours after dosing, 0.3 mg/kg oral) | stability in the blood ([2]; tumor bearing mice) | Molecule | CAR T cell proliferation in vivo ([1]; 0.003 mg/kg RAD001 daily) | proliferation of the CAR T cells in vivo ([1]; lowest doses of RAD001, daily oral) | impact on the growth of NALM6-luc tumors (NALM6-luc tumors) | proliferation of huCART19 cells ([3]; 0.0032 and 0.016 nM RAD001) | RAD001 concentration at which huCART19 cells expanded ([3]; 4 day co-culture with Nalm-6, 1:1) | persistence of transferred T-cells in the peripheral blood [4] | binding affinity relative to murine MOv19 (FRA) |
| --- | --- | --- | --- | --- | --- | --- | --- | --- | --- | --- | --- |
| > 10 | > 10 | above 10 nm | fairly stable | CO[C@H]1C[C@@H]2CC[C@@H](C)[C@@](O)(O2)C(=O)C(=O)N2CCCC[C@H]2C(=O)O[C@H]([C@H](C)C[C@@H]2CC[C@@H](OCCO)[C@H](OC)C2)CC(=O)[C@H](C)/C=C(\C)[C@@H](O)[C@@H](OC)C(=O)[C@H](C)C[C@H](C)/C=C/C=C/C=C/1C [RAD001, (1R,9S,12S,15R,16E,18R,19R,21R,23S,24E,26E,28E,30S,32S,35R)-1,18-dihydroxy-12-{(1R)-2-[(1S,3R,4R)-4-(2-hydroxyethoxy)-3-methoxycyclohexyl]-1-methylethyl}-19,30-dimethoxy-15,17,21,23,29,35-hexamethyl-11,36-dioxa-4-aza-tricyclo[30.3.1.04,9]hexatriaconta-16,24,26,28-tetraene-2,3,10,14,20-pentaone] | enhancement in CAR T cell proliferation | enhanced proliferation | did not have an impact | higher than observed without the addition of RAD001 | less than 0.016 nM | – | – |
| – | – | – | – | C4: fully human anti-FRA scFv/Fab fragment, scFv SEQ ID NO: 98 (protein) scFv: QLVESGGGLVQPGRSLRLSCTTSGFTFGDYAMIWARQAPGKGLEWVSSISSSSSYIYYADSVKGRFTISRDNAKNSLYLQMNSLRAEDTAVYYCARERYDFWSGMDVWGKGTTVTVSSGGGGSGGGGSGGSAQSALTQPASVSGSPGQSITISCTGTSSDVGSYNLVSWYQQHPGKAPKLMIYEGSKRPSGVSNRFSGSKSGNAASLTISGLQAEDEADYYCQSYDSSLSVVFGGGTKLTVLG | – | – | – | – | – | higher numbers of CD4+ and CD8+ T cells | approximately five-fold less; also recorded: approximately five-fold weaker |
